PubChem BioAssay AID1996
≈ marks a conversion by molar mass, not a printed value. Non-standard residues stand in square brackets, D forms with d. Residues, ends and D or L forms follow the SMILES beside them. pGlu = O=C1CC[C@@H](C(=O)O)N1; Thz = O=C(O)[C@@H]1CSCN1

Conditions: buffer; pH 7.4; 200.0 µM

Compound | solubility kinetic [µg/mL]
O=C1CCCCCCCN1Cc1ccccc1 | > 34.7
COc1ccc(-n2c(=S)[nH]c3ccccc3c2=S)cc1 | 1.4 (≈ 4.66 µM)
O=C(Nc1ccc(F)cc1)c1csc(Cc2ccccc2)n1 | 1.3 (≈ 4.16 µM)
COC(=O)CC1NCCc2cc(OC)c(OC)cc21 (stereo not given) | > 39.8
CCOC(=O)CN1C(=O)SC(Nc2ccc(C)cc2)C1=O (stereo not given) | > 46.3
COc1ccc(CN2CCC(Cc3ccccc3)CC2)c(C)c1C | 17 (≈ 52.6 µM)
O=C1CCc2ccccc2N1 | 15.9 (≈ 108 µM)
Fc1ccccc1-c1nc(-c2cnccc2C(F)(F)F)no1 | 8 (≈ 25.9 µM)
Cc1cc(Br)c2c(c1)C1(OCCO1)C(=O)N2 | > 42.6
COc1cccc(C(=O)NN2C(=S)N(c3ccccc3)C(=O)C2CC(N)=O)c1 (stereo not given) | > 59.8
COc1cc(S(=O)(=O)N2CCn3cccc3C2C)ccc1NC(C)=O (stereo not given) | > 54.5
CC(C)NC(=O)COc1ccc(S(=O)(=O)N2CCCC2)cc1 | > 49
CC(C)(C)N(Cc1ccccc1)C(=O)CN1C(=O)c2ccccc2S1(=O)=O | 15.7 (≈ 40.6 µM)
CC(OC(=O)C1CC1)C(=O)Nc1cc(Cl)cc(Cl)c1 (stereo not given) | > 45.3
O=[N+]([O-])c1cccnc1Oc1ccc(C2SCCS2)cc1 | < 0.3
Cc1ccccc1-c1nc(C(=O)NCC2CCCO2)cc2c1[nH]c1ccccc12 (stereo not given) | 3.2 (≈ 8.3 µM)
CC1CCN(C(=O)COC(=O)CCC(=O)c2ccc(F)cc2)CC1 | > 50.3
CC(NC(=O)c1c(F)cccc1Cl)c1ccc(-n2ccnc2)cc1 (stereo not given) | > 51.6
O=C(COC(=O)c1ccccc1Nc1ccccc1F)c1ccccc1 | < 0.7
CCOc1cc(CNc2ccc(N3CCCC3)cc2)cc(Cl)c1OC | < 0.4

Compound | solubility kinetic [µg/mL]
Cl.NS(=O)(=O)c1ccc(CCNCC#Cc2ccccc2)cc1 | > 52.6
Cc1ccc(C2C(C#N)=C(N)Oc3cc(N)ccc32)cc1 (stereo not given) | 4.4 (≈ 15.9 µM)
O=C(Nc1ccc(F)c(Cl)c1)c1cncs1 | > 38.5
O=C1CC[C@@H](C(=O)N2CSC[C@H]2C(=O)O)N1 ([pGlu]-[Thz]-OH) | > 36.6
CC1NC(C)(C)Cc2c1ccc1ccccc21.Cl (stereo not given) | 37.6
COC(=O)Cn1cc(C(=O)c2ccccc2F)c2ccccc21 | 32.4 (≈ 104 µM)
CN(C)S(=O)(=O)c1cccc(NC(=S)NCc2ccco2)c1 | > 50.9
CN1c2ccccc2Sc2cc(N)ccc21 | 25.6 (≈ 112 µM)
COC(=O)[C@H](CC(C)C)NC(=O)NCCC1=CCCCC1 | > 44.5
COC(=O)C(Cc1ccccc1)NC(=O)CCNC(=O)c1ccco1 (stereo not given) | > 51.7
COCCNC(=O)CSc1ccccc1C(=O)O | > 40.4
CCN(C(=O)COC(=O)c1ccc2c(c1)OCO2)c1ccccc1 | > 49.1
Cc1ccc(-c2c(=O)n(O)c3ccccc3[n+]2[O-])cc1 | 40.1 (≈ 149 µM)
CC(C)c1ccc(NC(=O)/C(C#N)=C/c2ccncc2)cc1 | 4.6 (≈ 15.8 µM)
O=C(Nc1cccnc1Cl)c1ccc(Cl)cc1 | 35 (≈ 131 µM)
CCOC(=O)c1cnc2[nH]c3ccccc3n2c1=O | 23 (≈ 89.4 µM)
Cc1ccccc1NC(=O)c1cccnc1 | 20.7 (≈ 97.5 µM)
CCN1C(=O)c2cccc3c(Cl)ccc(c23)C1=O | 1 (≈ 3.85 µM)
CCc1ccccc1NC(=O)N1CCCc2ccccc21 | 22.8 (≈ 81.3 µM)
Cc1noc(C)c1COC(=O)/C=C/c1ccccc1Cl | 6.8 (≈ 23.3 µM)

Compound | solubility kinetic [µg/mL]
O=C(/C=C/c1cccs1)Nc1nccs1 | 0.7 (≈ 2.96 µM)
O=C1NC(=Nc2cccc(O)c2)S/C1=C\c1cccnc1 | 1.2 (≈ 4.04 µM)
Cc1ccc(OCCCC(=O)NCc2ccco2)c(C)c1 | > 43.1
O=C(CCc1nnc(CCC2CCCCC2)o1)NCc1ccon1 | > 49.9
CCCN(C(=O)c1cn(C)c(=O)c2ccccc12)c1ccccc1C | > 50.2
COc1cc(C(=O)OCC2CC(c3ccccc3)=NO2)cc(OC)c1OC (stereo not given) | 38.2 (≈ 103 µM)
Cc1ccccc1N1C(=O)CC(c2c[nH]c3ccccc23)C1=O (stereo not given) | > 45.7
O=C(CSc1ccccn1)Nc1cccc([N+](=O)[O-])c1 | 38 (≈ 131 µM)
O=C(CCc1c[nH]c2ccccc12)NCc1cccc(Cl)c1 | 40.3 (≈ 129 µM)
CCOc1ccc(NC(=O)CN2CCc3ccccc3C2)cc1 | 34 (≈ 110 µM)
COc1ccccc1CC(=O)NCCc1c[nH]c2ccccc12 | 44.9 (≈ 146 µM)
CCCCCCCCOc1ccc(C2CC(=O)NC2=O)cc1 (stereo not given) | < 0.6
OC(CN1CCOCC1)Cn1cnc2ccccc21 (stereo not given) | > 39.2
Cc1ccc(C(=O)N2C3=C(CCCC3)C(=O)NC23CCCCC3)cc1 | 2.1 (≈ 6.2 µM)
O=C(COc1cccnc1[N+](=O)[O-])Nc1cccc(Br)c1 | 2.7 (≈ 7.67 µM)
Cc1c(Cl)cccc1Nc1ccccc1C(=O)O | > 39.3
COc1ccc(N2CCN(C(=O)CCc3ccccc3)CC2)cc1 | > 48.7
CCc1cccc(C)c1NC(=S)NCC1CCN(c2ccc(OC)cc2)C1 (stereo not given) | 2.7 (≈ 7.04 µM)
Cc1ccc2nc(N3C(=O)CNC3=S)sc2c1 | 11.9 (≈ 45.2 µM)
COc1ccc(C(=O)Nc2cnccn2)cc1[N+](=O)[O-] | 13.9 (≈ 50.7 µM)
